From KR20130087877A, “피부미백, 항산화 및 ppar 활성을 갖는 신규 화합물 및 이의 의학적 용도” (부산대학교 산학협력단, priority 2012, dated 2013)

How the values were obtained:
PPARα = target: T1, PPARα (Homo sapiens, UniProt Q07869); experiment: PPAR analysis, PPARα (Fluormone Pan-PPAR Green competition, competitive activation rate); details: final sample concentration 100 μM; compared with positive control fenofibrate; Figure 3
T1 sequence (Q07869 239-466 limits assumed): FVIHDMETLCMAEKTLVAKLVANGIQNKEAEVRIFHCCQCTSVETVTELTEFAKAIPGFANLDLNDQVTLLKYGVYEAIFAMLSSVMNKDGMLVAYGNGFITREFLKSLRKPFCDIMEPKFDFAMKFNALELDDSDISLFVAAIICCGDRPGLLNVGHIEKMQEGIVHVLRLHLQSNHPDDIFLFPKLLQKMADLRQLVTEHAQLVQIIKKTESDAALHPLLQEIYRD

PPARγ = target: T2, PPARγ (Homo sapiens, UniProt P37231); experiment: PPAR analysis, PPARγ (Fluormone Pan-PPAR Green competition, competitive activation rate); assay type: binding; details: final sample concentration 100 μM; compared with positive control rosiglitazone; Figure 4
T2 sequence (P37231 238-503 limits assumed): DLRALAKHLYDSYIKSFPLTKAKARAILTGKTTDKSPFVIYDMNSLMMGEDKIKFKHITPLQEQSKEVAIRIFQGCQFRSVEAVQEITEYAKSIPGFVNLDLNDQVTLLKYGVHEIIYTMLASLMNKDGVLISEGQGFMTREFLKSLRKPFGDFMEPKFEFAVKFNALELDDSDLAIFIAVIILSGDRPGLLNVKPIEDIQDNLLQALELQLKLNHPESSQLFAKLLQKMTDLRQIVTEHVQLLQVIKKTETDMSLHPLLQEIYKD

[1] = tested on: PPARα and PPARγ (PPARα 및 PPARγ); experiment: PPAR analysis, PPARα and PPARγ taken together; assay type: binding; details: final sample concentration 100 μM
[2] = tested on: mushroom-derived tyrosinase (버섯 유래 티로시나아제); experiment: Tyrosinase inhibition (dopachrome formation from L-tyrosine); assay type: biochemical; details: 1 mM L-tyrosine, pH 6.5, 25℃, 30 min, 492 nm; compared with positive control kojic acid; Figure 2
[3] = tested on: ROS generated in vascular endothelial cells (혈관내피세포(YPEN-1)); experiment: In vitro ROS scavenging activity, DCFDA assay in YPEN-1 vascular endothelial cells; assay type: cell-based, rat; details: YPEN-1 cells, SIN-1 50 μM pretreatment 1 h, compared with positive control Trolox, Figure 1

| SMILES | PPARα activation (competitive activation rate), in words (PPARα) | ROS scavenging effect [3] | also measured |
| --- | --- | --- | --- |
| NC(=O)N/N=C/c1ccccc1O [화합물 10, (E)-2-(2-Hydroxybenzylidene)hydrazinecarboxamide] | 양성대조군인 페노피브레이트보다 매우 뛰어난 PPARα 활성화제 |  |  |
| CC(=O)N/C(=C\c1ccc(O)cc1O)C(=O)O [화합물 15, (Z)-2-Acetamido-3-(2,4-dihydroxyphenyl)acrylic acid] | 양성대조군인 페노피브레이트보다 매우 뛰어난 PPARα 활성화제 |  | PPARγ activation (competitive activation rate), in words (PPARγ): 양성대조군인 로지글리타존보다 뛰어난 PPARγ 활성화제; simultaneous activation of PPARα and PPARγ [1]: PPARα 및 PPARγ를 동시에 활성화할 수 있는 활성화제 |
| CC(=O)N/C(=C\c1ccccc1O)C(=O)O [화합물 23, (Z)-2-Acetamido-3-(2-hydroxyphenyl)acrylic acid] | 양성대조군인 페노피브레이트보다 매우 뛰어난 PPARα 활성화제 |  | PPARγ activation (competitive activation rate), in words (PPARγ): 양성대조군인 로지글리타존보다 뛰어난 PPARγ 활성화제; simultaneous activation of PPARα and PPARγ [1]: PPARα 및 PPARγ를 동시에 활성화할 수 있는 활성화제 |
| NC(=O)N/N=C/c1ccc(O)cc1 [화합물 1, (E)-2-(4-Hydroxybenzylidene)hydrazinecarboxamide] |  |  | tyrosinase inhibitory activity [2]: 양성대조군인 코지산(Kojic Acid)과 유사한 티로시네이즈 억제 활성 |
| CC(=O)N/C(=C\c1ccc(O)c(O)c1)C(=O)O [화합물 14, (Z)-2-Acetamido-3-(3,4-dihydroxyphenyl)acrylic acid] |  | 양성대조군인 트롤록스(Trolox)만큼 소거하는 효과가 큰 |  |
| CCOc1cc(/C=C(\NC(C)=O)C(=O)O)ccc1O [화합물 17, (Z)-2-Acetamido-3-(3-ethoxy-4-hydroxyphenyl)acrylic acid] |  | 양성대조군인 트롤록스(Trolox)만큼 소거하는 효과가 큰 |  |
| COc1cc(/C=C(\NC(C)=O)C(=O)O)ccc1O [화합물 16, (Z)-2-Acetamido-3-(4-hydroxy-3-methoxyphenyl)acrylic acid] |  | 양성대조군인 트롤록스(Trolox)만큼 소거하는 효과가 큰 |  |
| COc1cc(/C=C(\NC(C)=O)C(=O)O)cc(OC)c1O [화합물 25, (Z)-2-Acetamido-3-(4-hydroxy-3,5-dimethoxyphenyl)acrylic acid] |  | 양성대조군인 트롤록스(Trolox)만큼 소거하는 효과가 큰 |  |
| NC(=O)N/N=C/c1ccc(O)c(O)c1 [화합물 2, (E)-2-(3,4-Dihydroxybenzylidene)hydrazinecarboxamide] |  | 양성대조군인 트롤록스(Trolox)만큼 소거하는 효과가 큰 |  |
